Data taken from PMC11600510 (Journal of Chemical Information and Modeling, 2024).

Key:
[1] = tested on: Vero E6 cells; test: MTT toxicity assay in Vero E6 cells; format: cell-based; details: 48 h
Experimental: (§1) Chemical compounds were dissolved and serially diluted in DMSO. Their cytotoxicity was assessed using an MTT assay. Briefly, HEK293T, SH-SY5Y or Vero E6 cells were cultured in 96-well plates (4 × 10^4 cells/well) at 37 °C in a 5% CO2 atmosphere. Cells were treated for 48 h with varying concentrations of the compounds (100–0.1 μM) or solvent. […] Treated cells were incubated for 4 h with […] MTT (Applichem). After incubation, the MTT-containing medium was removed and formazan crystals were dissolved in DMSO. The optical density (OD) of formazan solution at 570 and 630 nm was measured in a SPARK plate reader (Tecan).

[2] = target: T1, Spike RBD/ACE2 (19–615) interaction (Severe acute respiratory syndrome coronavirus 2, UniProt P0DTC2); test: cell-based; format: cell-based, SARS-CoV-2
T1 construct: S protein RBD (aa residues 319–541) of SARS-CoV-2; expressed in transfected cells; host or cells: HEK293T

[3] = tested on: HEK293T cells; test: MTT cytotoxicity assay in HEK293T cells; format: cell-based; details: 100 μM, 48 h
Experimental: as §1

Row | Compound | toxicity against Vero E6 cells [1] | inhibition at 10 µM ([2]; HEK-293T, 48 h, read-out: suppression of Spike RBD/ACE2 (19–615) interaction) [%] | melting point | cytotoxicity [3] | suppression of Spike/ACE2 interaction ([2]; 100 μM) [%]
1 | O=[N+]([O-])c1ccc(/C=C/C[n+]2cn(CCc3ccc4ccccc4c3)c3ccccc32)cc1.[Br-] [CKP-47, (E)-1-(2-(Naphthalen-2-yl)ethyl)-3-(3-(4-nitrophenyl)allyl)-1H-benzo[d]imidazol-3-ium Bromide] | toxic | 34 | 176 to 177 °C (dec.) |  | 
2 | Cc1cc(O)c2c(c1)C(=O)c1cc(O)cc(O)c1C2=O [Emodin, reference compound] |  |  |  | non-cytotoxic | ~27
